The results in this text go back to the OPERA property sets (Mansouri et al. 2018).

The boiling point is the temperature at which the vapour pressure of the liquid equals the pressure above it. The melting point is the temperature of the solid-liquid transition.

`Fc1cccc2ccccc12` came in with a boiling point of 215 °C and a melting point of -9 °C.
With `CCOP(=S)(OCC)SCSCC`, the log10 Koc (L/kg) amounted to 2.7 and the log10 vapour pressure (mmHg) is -3.2.
Molecule `CCC[Si](Cl)(Cl)Cl` showed a boiling point of 124 °C and a log10 vapour pressure (mmHg) of 1.46.
With `CCOc1ccc2nc3cc(N)ccc3c(N)c2c1`, the melting point was 226 °C.
With `Cc1ccc(Br)cc1`, the boiling point was determined as 184 °C, the log10 Henry constant (atm·m³/mol) is -2.63, the log10 vapour pressure (mmHg) was determined as 0.0607 and the melting point worked out at 28.5 °C.
In the same order, the values of `O=C(O)CBr` are 208 °C, -8.19, -0.926 and 50 °C.
In turn, `COc1cc(O)c(C=O)c(OC)c1` displayed a melting point of 70 °C.
Regarding `CC(=O)Nc1ccccc1Cl`, the log10 Koc (L/kg) turned out to be 1.58 and the melting point was 89 °C.
In the case of `CCCCCCCC(=O)OCCC`, the boiling point came to 226 °C and the melting point was -46.2 °C.
`ON=Cc1ccncc1`: the melting point was 132 °C.
Turning to `O=C(O)c1ccc(Sc2ccccc2)cc1`, the ready biodegradability result is given as “readily biodegradable”.
For `O=C(CCl)CCl`, the boiling point came out at 173 °C, the log10 vapour pressure (mmHg) was -0.202 and the melting point is 45 °C.
On to `CCCC(C)(C)CC`, for which the boiling point came out at 112 °C, the log10 biodegradation half-life (days) came out at 0.699, the log10 vapour pressure (mmHg) stood at 1.46 and the melting point was -126 °C.
`CC1CCCC(C)C1O` (stereo not drawn) came in with a boiling point of 176 °C and a melting point of 32.5 °C.
In turn, `CN1CCNCC1` registered a boiling point of 138 °C and a melting point of -6 °C.
`CN1CCN(CCCN2c3ccccc3Sc3ccc(Cl)cc32)CC1` showed a melting point of 228 °C.
`O=C1NCc2ccccc21`: the boiling point is 338 °C and the melting point was found to be 151 °C.
For the molecule `CC1CC(C)CC(C)C1` (mixture of isomers), the boiling point turned out to be 141 °C.
The molecule `C/C(=N\O)C(=O)c1ccccc1` returned a melting point of 114 °C.
The molecule `Clc1ccc(-c2ccc(Cl)cc2)cc1` displayed a boiling point of 317 °C, a log10 Henry constant (atm·m³/mol) of -3.7, a log10 Koa of 7.68 and a log10 vapour pressure (mmHg) of -3.27. The molecule further registered a melting point of 149 °C.
`COC(=O)c1cccc(C)c1S(=O)(=O)NC(=O)Nc1nc(OCC(F)(F)F)nc(N(C)C)n1` returned a log10 Koc (L/kg) of 1.84.
`Clc1ccc(-c2c(Cl)cccc2Cl)cc1` registered a log10 Henry constant (atm·m³/mol) of -3.7 and a log10 Koa of 7.72.
On to `CCc1ssc(=O)c1-c1ccccc1`, for which the melting point came to 82 °C.
`CCCOC(=O)NCCCN(C)C` had a log10 Henry constant (atm·m³/mol) of -8.83, a log10 Koc (L/kg) of 2.49 and a log10 vapour pressure (mmHg) of -1.26.
Molecule `CCOc1cccc(OCC)c1` came in with a boiling point of 235 °C and a melting point of 12.4 °C.
In turn, `CCCC(CCC)C(C)C` had a boiling point of 159 °C.
Regarding `O=[N+]([O-])c1cc(Cl)c(Cl)c(Cl)c1Cl`, the log10 Koc (L/kg) came out at 4.23.
As for `CC(C)COC(C)OCC(C)C`, the boiling point stood at 171 °C.
In turn, `O=[N+]([O-])c1ccc(Br)c(Cl)c1` registered a log10 Koc (L/kg) of 2.6.
The molecule `CCC(=O)c1ccc(N)cc1` registered a melting point of 140 °C.
Molecule `CC(O)Cn1cnc2c1c(=O)n(C)c(=O)n2C` (stereo not drawn) showed a melting point of 136 °C.
Still for that read-out and setting: for `Cc1ccc(CCc2ccc(C)cc2)cc1` the value was 85 °C.
Regarding `CC(=O)NCc1ccccc1`, the melting point was found to be 61 °C and the ready biodegradability result is given as “readily biodegradable”.
In the case of `CC(C)C(O)C(C)(C)CO` (stereo not drawn), the boiling point is 232 °C, the log10 vapour pressure (mmHg) was -2.35, the melting point was found to be 51.5 °C and the ready biodegradability entry was “readily biodegradable”.
The molecule `CCCCCCCCCCCCCCCCCCCCCCCCC` came in with a boiling point of 402 °C, a log10 biodegradation half-life (days) of 2.08, a log10 vapour pressure (mmHg) of -5.82 and a melting point of 54 °C. In addition, the ready biodegradability result is on record as “readily biodegradable”.
Take `Cc1ccc(O)c(Cl)c1C`: the boiling point is 188 °C and the melting point is 27 °C.
The molecule `C=C(C)C(=O)OCCOCCOCCOCCOC(=O)C(=C)C` came in with a boiling point of 220 °C.
`CCCCCCCCCCCCCBr`: the boiling point came out at 296 °C, the log10 vapour pressure (mmHg) is -2.87 and the melting point came to 6.2 °C.
Take `O=C(/C=C/c1ccc([N+](=O)[O-])cc1)c1ccccc1`: the melting point is 159 °C.
On to `CC1(C)CCCC(C)(C)N1`, for which the boiling point was 156 °C.
Molecule `Nc1ccc(C(=O)O)cc1O` registered a melting point of 213 °C.
For the molecule `CCCCOC(=O)CC(=O)OCCCC`, the boiling point amounted to 252 °C and the melting point is -83 °C.
In turn, `O=C(O)c1c(F)c(F)c(F)c(F)c1F` had a boiling point of 220 °C and a melting point of 101 °C.
Turning to `C/C(=C\C(=O)O)C1CCCCC1`, the melting point turned out to be 85.5 °C.
Consider `CC(=O)OC1CCC(C(C)(C)C)CC1` (stereo not drawn), for which the log10 vapour pressure (mmHg) was -2.12 and the melting point is -50 °C.
`CN(C)c1ccc(N=Nc2ccc([N+](=O)[O-])cc2)cc1` showed a log10 vapour pressure (mmHg) of -10 and a melting point of 236 °C.
On to `CC(C)(C)c1cc([N+](=O)[O-])c(O)c([N+](=O)[O-])c1`, for which the melting point is 95 °C.
On the same count and under the same terms, for `CN(N=O)c1ccccc1` the value was 14.7 °C.
`C=CCOCC1CO1` (stereo not drawn) displayed a boiling point of 154 °C.
`CC(C)CNC(=O)N1CCNC1=O` displayed a melting point of 95.5 °C.
On to `O=[N+]([O-])c1ccc(O)c([N+](=O)[O-])c1`, for which the log10 Henry constant (atm·m³/mol) is -7.07, the log10 vapour pressure (mmHg) was -3.41, the melting point was found to be 116 °C and the ready biodegradability result is recorded as “not readily biodegradable”.
`O=C(O)c1cc(F)c(F)cc1F` registered a melting point of 100 °C.
On the same count and under the same terms, the value for `C=C[C@H]1C[N@@]2CCC1C[C@H]2c1[nH]c2ccccc2c1CCO` was 186 °C.
Molecule `Cc1c(Cl)cccc1[N+](=O)[O-]` yielded a boiling point of 238 °C and a melting point of 37.8 °C.
In the case of `CNC(=O)Nc1ccc(OC)c(Cl)c1`, the log10 Koc (L/kg) is 1.84.
`CCCCOC(=O)CCC(=O)O` showed a melting point of 8.6 °C.
Same read-out and setting: for `O=C1OC(OC2OC(=O)C(Cl)=C2Cl)C(Cl)=C1Cl` (stereo not drawn) the value was 142 °C.
